Test results published in ChEMBL document CHEMBL1201862, “PubChem BioAssay data set” (2004).
Calls of active or inactive are those of the source.

Experiments:
[1] = target: T1, Orexin/Hypocretin receptor type 1 (Homo sapiens, UniProt O43613); assay: (§1) Fluorescence-based cell-based high throughput dose response assay for antagonists of the orexin 1 receptor (OX1R; HCRTR1). [Related pubchem assays (depositor defined):AID434989, AID435008, AID463079, AID485270, AID492963, AID492964, AID492965, AID493232, AID504717, AID504718]; type: functional
T1 sequence (O43613 whole entry): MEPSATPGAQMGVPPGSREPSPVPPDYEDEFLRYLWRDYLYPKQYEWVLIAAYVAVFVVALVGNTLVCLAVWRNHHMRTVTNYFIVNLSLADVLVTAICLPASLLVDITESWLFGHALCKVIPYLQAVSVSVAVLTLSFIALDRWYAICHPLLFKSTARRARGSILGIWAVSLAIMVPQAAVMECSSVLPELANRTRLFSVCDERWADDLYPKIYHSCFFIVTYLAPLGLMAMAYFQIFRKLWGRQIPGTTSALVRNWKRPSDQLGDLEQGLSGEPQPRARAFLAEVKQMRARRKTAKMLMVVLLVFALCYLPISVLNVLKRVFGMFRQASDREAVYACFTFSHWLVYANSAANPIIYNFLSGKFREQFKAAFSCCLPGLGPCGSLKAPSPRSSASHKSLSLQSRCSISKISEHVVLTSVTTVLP

[2] = (§2) Counterscreen for antagonists of the orexin 1 receptor (OX1R; HCRTR1): Fluorescence-based cell-based high throughput dose response assay to identify antagonists of the parental CHO cell line. [Related pubchem assays (depositor defined):AID434989, AID435008, AID463079, AID485270, AID492963, AID492964, AID492965, AID493232, AID504699, AID504701]; type: functional
[3] = target: T1, Orexin/Hypocretin receptor type 1; assay: as §1, with “Homogeneous Time Resolved Fluorescence (HTRF)-based” for “Fluorescence-based”; type: functional
CHO-K1 = assay: as §2, with “Homogeneous time resolved fluorescence (HTRF)-based” for “Fluorescence-based”, “cell-based” for “cell-based high throughput”, “CHO-K1” for “CHO”; type: functional; conditions: Cricetulus griseus;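 note: potency for inhibition of ATP-stimulated IP1 production as antagonists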
INS1 = assay: beta cell apoptosis inhibitors, cytokine rescue, dose response, luminescence, retest (AID 449756); type: functional, cell-based; conditions: Rattus norvegicus;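 note: cell death triggered by IL-1 beta plus TNF-alpha plus IFN-gamma mixture; protective hits raise ATP signal compared with cytokine alone wells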
Streptococcus = assay: Group A Streptococcus viability loss, dose response, counter-screen for streptokinase expression inhibitor project, luminescence, BacTiterGlo (AID 1915); type: functional, organism-based;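 note: potency for reduction of bacterial viability or growth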
[4] = system: Streptococcus sp. 'group A'; assay: growth inhibition of control SK(-) GAS strain, dose response, counter-screen for streptokinase expression inhibitor project, luminescence, kanamycin, BacTiterGlo, confirmation (AID 1900); type: functional, organism-based
[5] = cytotoxicity toward NIH3T3 fibroblasts, dose response, counter-screen, cell-based, ATP luminescence, mouse fibroblasts (AID 2010); type: functional;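 note: cells exposed to compound for about 90 hours before reading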
[6] = Intein inhibitors as potential Tuberculosis drugs, a cytotoxicity screen. [Related pubchem assays (depositor defined):AID2221, AID2223, AID434968, AID435010, AID449749, AID449750, AID489010]; type: functional
[7] = inhibitors of intracellular T. cruzi replication, confirmation, NIH3T3 host cells, beta-gal luminescence (AID 2044); type: functional, cell-based;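 note: intracellular parasites grown in NIH/3T3 mouse fibroblasts as host cells; luminescent beta-galactosidase reporter signal from transgenic T. cruzi replicating inside host cells; inhibitors lower the luminescence signal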
BJ [8] = assay: cytotoxicity toward BJ-TERT fibroblasts, dose response, cell-based, RAS-independent, luminescence (AID 1933); type: functional; conditions: Homo sapiens
Protein skinhead-1 = target: T2, Protein skinhead-1 (Caenorhabditis elegans, UniProt P34707); type: functional
T2 sequence (P34707 whole entry): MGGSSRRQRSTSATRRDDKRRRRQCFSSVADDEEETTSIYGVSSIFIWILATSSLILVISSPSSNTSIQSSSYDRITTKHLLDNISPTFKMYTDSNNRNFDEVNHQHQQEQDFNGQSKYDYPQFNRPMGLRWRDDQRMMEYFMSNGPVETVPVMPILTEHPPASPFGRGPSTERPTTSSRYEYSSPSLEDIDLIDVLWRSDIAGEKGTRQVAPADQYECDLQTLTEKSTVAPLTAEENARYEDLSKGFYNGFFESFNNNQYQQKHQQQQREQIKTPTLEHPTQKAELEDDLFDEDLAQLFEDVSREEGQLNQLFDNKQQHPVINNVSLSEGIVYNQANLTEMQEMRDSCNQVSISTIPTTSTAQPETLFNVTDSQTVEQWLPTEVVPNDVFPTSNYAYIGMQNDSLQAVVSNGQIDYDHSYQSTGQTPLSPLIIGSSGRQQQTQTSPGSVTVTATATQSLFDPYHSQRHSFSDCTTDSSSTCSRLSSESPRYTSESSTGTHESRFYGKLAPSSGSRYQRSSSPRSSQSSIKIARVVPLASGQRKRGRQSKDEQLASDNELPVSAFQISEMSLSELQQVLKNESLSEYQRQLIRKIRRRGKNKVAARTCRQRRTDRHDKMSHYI

[9] = cytotoxicity toward DRD oncogenic fibroblasts, dose response, cell-based, non-viral oncogenic, luminescence (AID 1934); type: functional; conditions: Homo sapiens
BJ [10] = assay: cytotoxicity toward BJ-TERT-LT-ST fibroblasts, dose response, cell-based, RAS-independent, luminescence (AID 1935); type: functional; conditions: Homo sapiens;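 note: BJ fibroblasts immortalized with TERT plus LT and ST oncogenes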
[11] = cytotoxicity in HEK-293T cells, dose response, cytotoxicity control for TCR NF-kB inhibitor project, luminescence, T-cell screen hits (AID 489026); type: functional, cell-based;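 note: cells exposed to compound about 14 hours before the viability readout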
BJ [12] = assay: cells; type: functional, cell-based; conditions: Homo sapiens
[13] = target: Alkaline phosphatase, placental type (Homo sapiens, UniProt P05187); assay: PLAP enzyme inhibitors, confirmation, biochemical, luminescence (AID 1512); type: functional
Alkaline phosphatase, placental type, sequence (P05187 whole entry): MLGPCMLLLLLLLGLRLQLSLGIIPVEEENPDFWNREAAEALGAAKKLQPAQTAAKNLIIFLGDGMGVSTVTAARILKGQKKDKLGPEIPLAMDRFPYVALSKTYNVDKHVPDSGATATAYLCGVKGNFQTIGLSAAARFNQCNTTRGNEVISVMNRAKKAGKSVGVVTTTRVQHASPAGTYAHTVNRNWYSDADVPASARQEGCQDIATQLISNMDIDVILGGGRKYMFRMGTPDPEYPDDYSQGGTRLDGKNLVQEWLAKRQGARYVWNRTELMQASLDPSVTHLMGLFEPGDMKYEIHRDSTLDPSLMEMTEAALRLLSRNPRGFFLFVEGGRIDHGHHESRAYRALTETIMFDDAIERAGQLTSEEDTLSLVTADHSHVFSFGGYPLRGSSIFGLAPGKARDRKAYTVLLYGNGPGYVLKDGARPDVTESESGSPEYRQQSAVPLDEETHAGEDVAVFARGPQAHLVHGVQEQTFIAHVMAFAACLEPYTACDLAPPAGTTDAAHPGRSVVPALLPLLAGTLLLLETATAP

[14] = target: T3, Alkaline phosphatase, tissue-nonspecific isozyme (Homo sapiens, UniProt P05186); assay: human TNAP enzyme inhibitors, SAR follow-up, biochemical, luminescent, dose response (AID 1056)
T3 sequence (P05186 whole entry): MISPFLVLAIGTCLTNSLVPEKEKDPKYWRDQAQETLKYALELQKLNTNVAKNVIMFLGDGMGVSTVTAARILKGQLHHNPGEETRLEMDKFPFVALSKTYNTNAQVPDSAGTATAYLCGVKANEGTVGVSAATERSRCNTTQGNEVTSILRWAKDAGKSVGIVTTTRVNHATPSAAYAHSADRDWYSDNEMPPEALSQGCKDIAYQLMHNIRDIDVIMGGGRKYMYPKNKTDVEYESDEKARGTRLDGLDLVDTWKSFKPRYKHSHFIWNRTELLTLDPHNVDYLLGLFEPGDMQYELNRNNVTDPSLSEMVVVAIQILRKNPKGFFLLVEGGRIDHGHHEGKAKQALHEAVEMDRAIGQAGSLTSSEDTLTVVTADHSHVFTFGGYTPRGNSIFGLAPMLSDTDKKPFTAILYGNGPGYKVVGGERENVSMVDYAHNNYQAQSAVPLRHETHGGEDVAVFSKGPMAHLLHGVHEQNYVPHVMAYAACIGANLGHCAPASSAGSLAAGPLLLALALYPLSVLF

[15] = target: Glyceraldehyde-3-phosphate dehydrogenase (Homo sapiens, UniProt P04406)
Glyceraldehyde-3-phosphate dehydrogenase, sequence (P04406 whole entry): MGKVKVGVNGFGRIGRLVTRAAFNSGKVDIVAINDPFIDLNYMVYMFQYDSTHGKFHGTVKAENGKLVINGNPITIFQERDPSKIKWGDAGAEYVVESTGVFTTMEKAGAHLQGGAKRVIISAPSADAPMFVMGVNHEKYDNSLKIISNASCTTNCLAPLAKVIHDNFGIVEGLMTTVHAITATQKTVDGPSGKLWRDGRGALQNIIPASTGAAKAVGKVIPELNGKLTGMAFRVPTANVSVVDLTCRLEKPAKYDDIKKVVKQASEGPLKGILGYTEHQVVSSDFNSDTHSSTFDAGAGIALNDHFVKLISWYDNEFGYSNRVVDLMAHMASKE

[16] = target: T4, Replicative DNA helicase DnaB (Mycobacterium tuberculosis, UniProt P9WMR3); assay: DnaB intein splicing inhibitors, dose response, biochemical, cell-free fluorescence (AID 449749); type: functional
T4 sequence (P9WMR3 whole entry): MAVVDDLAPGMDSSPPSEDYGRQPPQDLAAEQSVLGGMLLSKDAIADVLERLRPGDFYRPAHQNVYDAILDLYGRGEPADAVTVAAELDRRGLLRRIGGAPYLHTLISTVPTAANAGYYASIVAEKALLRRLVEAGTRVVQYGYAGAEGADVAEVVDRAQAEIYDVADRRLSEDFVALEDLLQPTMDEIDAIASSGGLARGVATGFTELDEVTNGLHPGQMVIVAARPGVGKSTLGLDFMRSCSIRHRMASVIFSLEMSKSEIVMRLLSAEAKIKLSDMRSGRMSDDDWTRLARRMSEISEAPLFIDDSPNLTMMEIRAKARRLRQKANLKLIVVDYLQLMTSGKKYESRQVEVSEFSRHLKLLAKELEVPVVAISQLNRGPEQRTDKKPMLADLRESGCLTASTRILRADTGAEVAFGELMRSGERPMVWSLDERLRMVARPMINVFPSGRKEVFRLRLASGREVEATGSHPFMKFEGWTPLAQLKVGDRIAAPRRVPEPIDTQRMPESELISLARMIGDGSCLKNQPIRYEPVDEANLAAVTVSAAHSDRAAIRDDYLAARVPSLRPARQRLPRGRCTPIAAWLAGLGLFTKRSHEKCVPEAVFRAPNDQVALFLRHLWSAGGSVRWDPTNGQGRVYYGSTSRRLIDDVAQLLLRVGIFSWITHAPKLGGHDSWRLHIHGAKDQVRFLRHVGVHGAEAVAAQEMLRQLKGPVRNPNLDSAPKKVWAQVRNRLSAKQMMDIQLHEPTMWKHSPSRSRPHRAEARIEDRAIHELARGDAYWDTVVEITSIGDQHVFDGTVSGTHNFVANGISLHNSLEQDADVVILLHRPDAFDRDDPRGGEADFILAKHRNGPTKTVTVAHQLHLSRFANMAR

[17] = target: Heat shock protein HSP 90-alpha (Homo sapiens, UniProt P07900); type: functional, organism-based
Protein RecA = target: T5, Protein RecA (Mycobacterium tuberculosis, UniProt P9WHJ3); assay: Fluorescence Cell-Free Homogeneous Dose Retest to Identify Inhibitors of RecA-Intein Splicing Activity. [Related pubchem assays (depositor defined):AID2097, AID2223, AID489010, AID492950]; type: functional
T5 sequence (P9WHJ3 whole entry): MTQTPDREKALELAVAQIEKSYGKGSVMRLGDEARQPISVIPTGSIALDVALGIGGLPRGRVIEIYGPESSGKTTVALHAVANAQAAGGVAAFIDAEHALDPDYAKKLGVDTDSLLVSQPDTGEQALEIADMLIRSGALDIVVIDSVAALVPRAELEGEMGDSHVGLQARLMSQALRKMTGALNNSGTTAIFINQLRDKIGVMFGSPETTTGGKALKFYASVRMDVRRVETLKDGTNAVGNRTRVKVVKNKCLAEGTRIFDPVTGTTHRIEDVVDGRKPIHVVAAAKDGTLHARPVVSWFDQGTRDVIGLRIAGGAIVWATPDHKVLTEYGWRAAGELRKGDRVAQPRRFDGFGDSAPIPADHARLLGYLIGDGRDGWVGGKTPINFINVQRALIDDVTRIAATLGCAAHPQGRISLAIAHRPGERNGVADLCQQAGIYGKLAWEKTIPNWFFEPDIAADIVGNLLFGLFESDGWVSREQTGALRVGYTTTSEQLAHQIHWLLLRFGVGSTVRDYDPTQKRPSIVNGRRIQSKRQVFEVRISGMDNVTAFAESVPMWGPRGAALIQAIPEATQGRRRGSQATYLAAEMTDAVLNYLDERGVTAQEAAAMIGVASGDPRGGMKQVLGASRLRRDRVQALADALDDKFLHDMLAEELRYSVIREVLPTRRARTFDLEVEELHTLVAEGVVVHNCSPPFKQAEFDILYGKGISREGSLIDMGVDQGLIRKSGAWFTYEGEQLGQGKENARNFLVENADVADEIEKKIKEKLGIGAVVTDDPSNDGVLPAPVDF
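Throughout, for CC50: cells exposed to compound for 72 hours before luminescence readout.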

CCOC(=O)C1=C(COC(=O)c2ccc3ccccc3c2O)NC(=O)NC1C (stereo not given)
IC50 [1]: 2.35 µM (active) | IC50 [2]: 37.2 µM (inactive) | IC50 [3]: 1.62 µM (active) | IC50 (CHO-K1): 33.6 µM (inactive)

O=C(NC(N=C(S)Nc1ccc(Cl)cc1Cl)C(Cl)(Cl)Cl)c1cccc([N+](=O)[O-])c1 (stereo not given)
AC50 (INS1): 6.08 µM (active) | EC50 (Streptococcus): 4.8 µM (active) | EC50 [4]: 1.37 µM (active) | EC50 [5]: 8.05 µM (active) | CC50 [6]: 11 µM (active) | EC50 [7]: 1.14 µM (active)

O=C(c1ccc(Br)cc1)c1cc([N+](=O)[O-])ccc1N1CCOCC1
EC50 (BJ [8]): 7.48 µM (active) | IC50 (Protein skinhead-1): 44.7 µM (active) | EC50 [9]: 2.55 µM (active) | EC50 (BJ [10]): 2.91 µM (inconclusive) | IC50 [11]: > 80 µM (inactive) | EC50 (BJ [12]): 14.8 µM (active)

O=C(Cn1cnnn1)c1ccc(O)c(O)c1
IC50 [13]: 16.4 µM (active) | IC50 [14]: > 100 µM (inactive)

O=[N+]([O-])c1ccc(-c2n[nH]c(-c3ccccc3)n2)cc1
IC50 [13]: > 100 µM (inactive) | IC50 [15]: > 100 µM (not active) | IC50 [14]: > 100 µM (inactive)

CC1(C)N=C(SCC(=O)Nc2ccc(Cl)cc2)C(c2ccc(Cl)cc2)=N1
AC50 [16]: 3.03 µM (active) | AC50 [17]: 11.3 µM (active) | EC50 (Protein RecA): 4.7 µM (active) | CC50 [6]: > 40 µM (active)
